# Experimental data from ChEMBL document CHEMBL5518180, “Design, synthesis, and biological evaluation of harmine derivatives as topoisomerase I inhibitors for cancer treatment” (Eur J Med Chem, 2024).
# pIC50: −log10 of the molar value. Activity calls are given as the source filed them. No cut-off for these calls is given here.
# Tests used:
# [1] = system: MCF7; experiment: Induction of apoptosis in human MCF7 cells assessed as viable cells at 0.5 uM incubated for 24 hrs by Annexin V-FITC/Propidium Iodide staining based flow cytometry analysis (reference value: 91.8 %); assay type: functional; settings: read-out: Activity
# [2] = system: MCF7; experiment: Induction of apoptosis in human MCF7 cells assessed as necrotic cells at 0.1 uM incubated for 24 hrs by Annexin V-FITC/Propidium Iodide staining based flow cytometry analysis (reference value: 0.082 %); assay type: functional
# [3] = system: MCF7; experiment: Induction of apoptosis in human MCF7 cells assessed as necrotic cells at 0.5 uM incubated for 24 hrs by Annexin V-FITC/Propidium Iodide staining based flow cytometry analysis (reference value: 0.082 %); assay type: functional
# [4] = system: HepG2; experiment: Antiproliferative activity against human HepG2 cells assessed as inhibition of cell growth incubated for 48 hrs by MTT assay; assay type: functional, cell-based; settings: HepG2, 48 h
# [5] = Toxicity in BALB/c mouse transplanted with […] cells assessed as spleen damage at 5 to 20 mg/kg, ip administered for 14 days by hematoxylin and eosin staining based analysis; assay type: organism-based; settings: in vivo, 336 h, dose 5-20 mg/kg, time 14 day
# [6] = system: MCF7; experiment: Induction of apoptosis in human MCF7 cells assessed as increase in Bax protein expression incubated for 24 hrs by Western blotting analysis; assay type: functional, cell-based; settings: dose 0.1-2 µM
# [7] = system: MCF7; experiment: Induction of DNA double-strand breaks in human MCF7 cells assessed as increase in gamma-H2AX incubated for 48 hrs by DAPI staining based confocal laser scanning microscopy; assay type: functional, cell-based; settings: dose 0.25-1 µM
# [8] = Toxicity in BALB/c mouse transplanted with […] cells assessed as lung damage at 5 to 20 mg/kg, ip administered for 14 days by hematoxylin and eosin staining based analysis; assay type: organism-based; settings: in vivo, 336 h, dose 5-20 mg/kg, time 14 day
# [9] = system: MCF7; experiment: Induction of apoptosis in human MCF7 cells assessed as early apoptotic cells at 0.5 uM incubated for 24 hrs by Annexin V-FITC/Propidium Iodide staining based flow cytometry analysis (reference value: 2.54 %); assay type: functional
# [10] = system: MCF7; experiment: Induction of apoptosis in human MCF7 cells assessed as late apoptotic cells at 0.5 uM incubated for 24 hrs by Annexin V-FITC/Propidium Iodide staining based flow cytometry analysis (reference value: 5.58 %); assay type: functional
# [11] = system: MCF7; experiment: Induction of apoptosis in human MCF7 cells assessed as increase in cleaved-PARP protein expression incubated for 24 hrs by Western blotting analysis; assay type: functional, cell-based; settings: dose 0.1-2 µM
# [12] = target: T1, DNA topoisomerase 1 (Homo sapiens) (UniProt P11387); experiment: Inhibition of Topoisomerase I (unknown origin) assessed as inhibition of relaxation of supercoiled DNA incubated for 90 mins in presence of pBR322 by electrophoretic analysis; settings: dose 25-100 µM
# T1 sequence (whole entry): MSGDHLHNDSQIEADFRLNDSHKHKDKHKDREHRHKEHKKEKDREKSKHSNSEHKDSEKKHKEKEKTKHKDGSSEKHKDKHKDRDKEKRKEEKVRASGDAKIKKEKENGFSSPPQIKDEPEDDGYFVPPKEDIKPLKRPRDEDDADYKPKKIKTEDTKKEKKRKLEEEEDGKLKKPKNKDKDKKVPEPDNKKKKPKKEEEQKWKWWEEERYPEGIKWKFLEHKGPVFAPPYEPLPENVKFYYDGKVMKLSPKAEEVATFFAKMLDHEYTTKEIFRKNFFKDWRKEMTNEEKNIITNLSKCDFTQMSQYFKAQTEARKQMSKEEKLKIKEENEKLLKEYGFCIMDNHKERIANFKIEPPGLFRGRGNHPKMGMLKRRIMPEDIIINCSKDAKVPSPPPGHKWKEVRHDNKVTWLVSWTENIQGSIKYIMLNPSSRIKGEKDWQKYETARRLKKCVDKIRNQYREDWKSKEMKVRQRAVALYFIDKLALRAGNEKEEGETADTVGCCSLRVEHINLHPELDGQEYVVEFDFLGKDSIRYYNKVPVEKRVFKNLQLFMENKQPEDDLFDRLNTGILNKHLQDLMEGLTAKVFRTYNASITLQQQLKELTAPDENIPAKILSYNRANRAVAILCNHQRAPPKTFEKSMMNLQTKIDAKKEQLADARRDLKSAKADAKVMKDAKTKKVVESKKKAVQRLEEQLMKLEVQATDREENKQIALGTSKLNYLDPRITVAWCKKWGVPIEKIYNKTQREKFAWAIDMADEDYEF
# [13] = system: HT-29; experiment: Antiproliferative activity against human HT-29 cells assessed as inhibition of cell growth incubated for 48 hrs by MTT assay; assay type: functional, cell-based; settings: HT-29, 48 h
# [14] = Toxicity in BALB/c mouse transplanted with […] cells assessed as change in serum aspartate aminotransferase level at 5 to 20 mg/kg, ip administered for 14 days by biochemical analysis; assay type: organism-based; settings: in vivo, 336 h, dose 5-20 mg/kg, time 14 day
# [15] = system: 4T1; experiment: Antitumor activity against mouse 4T1 cells transplanted in BALB/c mouse assessed as tumor growth inhibition rate at 5 mg/kg, ip administered for 14 days relative to control; assay type: functional; settings: 4T1, 336 h, time 14 day, read-out: TGI
# [16] = system: MCF7; experiment: Antiproliferative activity against human MCF7 cells assessed as inhibition of cell growth incubated for 48 hrs by MTT assay; assay type: functional, cell-based; settings: MCF7, 48 h
# [17] = system: MCF7; experiment: Induction of apoptosis in human MCF7 cells assessed as viable cells at 0.1 uM incubated for 24 hrs by Annexin V-FITC/Propidium Iodide staining based flow cytometry analysis (reference value: 91.8 %); assay type: functional; settings: read-out: Activity
# [18] = system: MCF7; experiment: Induction of apoptosis in human MCF7 cells assessed as early apoptotic cells at 0.1 uM incubated for 24 hrs by Annexin V-FITC/Propidium Iodide staining based flow cytometry analysis (reference value: 2.54 %); assay type: functional
# [19] = system: PC-3; experiment: Antiproliferative activity against human PC-3 cells assessed as inhibition of cell growth incubated for 48 hrs by MTT assay; assay type: functional, cell-based; settings: PC-3, 48 h
# [20] = system: MCF7; experiment: Induction of DNA damage in human MCF7 cells at 1 uM pre-incubated for 24 hrs by Comet assay; assay type: functional, cell-based
# [21] = Toxicity in BALB/c mouse transplanted with […] cells assessed as change in blood urea nitrogen level at 5 to 20 mg/kg, ip administered for 14 days by biochemical analysis; assay type: organism-based; settings: in vivo, 336 h, dose 5-20 mg/kg, time 14 day
# [22] = system: MCF7; experiment: Antimigratory activity against human MCF7 cells assessed as wound healing rate at 0.5 uM incubated for 24 hrs by inverted fluorescence microscopic analysis (reference value: 42.5 %); assay type: functional
# [23] = system: 4T1; experiment: Antitumor activity against mouse 4T1 cells transplanted in BALB/c mouse assessed as tumor growth inhibition rate at 20 mg/kg, ip administered for 14 days relative to control; assay type: functional; settings: 4T1, 336 h, time 14 day, read-out: TGI
# [24] = system: 4T1; experiment: Antitumor activity against mouse 4T1 cells transplanted in BALB/c mouse assessed as inhibition of tumor volume at 10 mg/kg, ip administered for 14 days; assay type: functional, organism-based; settings: time 14.0 day
# [25] = system: MCF7; experiment: Antimigratory activity against human MCF7 cells assessed as reduction in penetration of cells in transwell membrane at 0.125 to 0.5 uM incubated for 24 hrs by crystal violet staining based inverted fluorescence microscopic analysis; assay type: functional, cell-based; settings: dose 0.125-0.5 µM
# [26] = system: MCF7; experiment: Induction of apoptosis in human MCF7 cells assessed as viable cells at 2 uM incubated for 24 hrs by Annexin V-FITC/Propidium Iodide staining based flow cytometry analysis (reference value: 91.8 %); assay type: functional; settings: read-out: Activity
compound,measurement,setting,value
O=C(/C=C/c1ccc(Cl)c([N+](=O)[O-])c1)c1nccc2c1[nH]c1ccccc12,viability at 0.5 µM,[1],71%
same,Activity,[2],0.12%
same,Activity,[3],0.27%
same,pIC50,[4],5.79
same,Activity,[5],Non-Toxic
same,Activity,[6],Dose-Dependent Effect
same,Activity,[7],Dose-Dependent Effect
same,Activity,[8],Non-Toxic
same,Activity,[9],20.1%
same,Activity,[10],8.65%
same,Activity,[11],Dose-Dependent Effect
same,inhibition,[12],Dose-Dependent Effect
same,pIC50,[13],6.24
same,Activity,[14],Non-Toxic
same,inhibition in vivo at 5 mg/kg,[15],21.7%
same,pIC50,[16],6.47
same,viability at 0.1 µM,[17],85.3%
same,Activity,[18],7.52%
same,pIC50,[19],5.93
same,Activity,[20],inactive
same,Activity,[21],Non-Toxic
same,Activity,[22],1.4%
same,inhibition in vivo at 20 mg/kg,[23],63.9%
same,Activity,[24],Active
same,Activity,[25],Active
same,viability at 2 µM,[26],60.6%
